Assays:
Experiment in all cases: NCI-60 five-dose SRB assay
Assay type in all cases: cell-based
[1] = test system: LOX IMVI; conditions: Homo sapiens, Melanoma, five-dose test
Method: (§1) The anticancer screening of target compounds over a full panel of 60 human cancer cell lines was carried out using Sulforhodamine B (SRB) assay at the National Cancer Institute (NCI), Bethesda, Maryland, USA, employing the standard protocol.

[2] = test system: OVCAR-4; conditions: Homo sapiens; OVCAR-4, Ovarian cancer, five-dose test
Method: as §1

[3] = test system: SK-MEL-2; conditions: Homo sapiens; SK-MEL-2, Melanoma, five-dose test
Method: as §1

[4] = test system: COLO 205; conditions: Homo sapiens; COLO 205, Colon cancer, five-dose test
Method: as §1

[5] = test system: IGROV1; conditions: Homo sapiens, IGROV-1; IGROV1, Ovarian cancer, five-dose test
Method: as §1

[6] = test system: SF-268; conditions: Homo sapiens; SF-268, CNS cancer, five-dose test
Method: as §1

[7] = test system: NCI-H522; conditions: Homo sapiens; NCI-H522, NSCL cancer, five-dose test
Method: as §1

[8] = test system: T-47D; conditions: Homo sapiens, T47D, Breast cancer, five-dose test
Method: as §1

[9] = test system: OVCAR-8; conditions: Homo sapiens; OVCAR-8, Ovarian cancer, five-dose test
Method: as §1

[10] = test system: U251; conditions: Homo sapiens, U-251; U251, CNS cancer, five-dose test
Method: as §1

[11] = test system: HCC-2998; conditions: Homo sapiens; HCC-2998, Colon cancer, five-dose test
Method: as §1

[12] = test system: RPMI-8226; conditions: Homo sapiens; RPMI-8226, Leukemia, five-dose test
Method: as §1

[13] = test system: BT-549; conditions: Homo sapiens; BT-549, Breast cancer, five-dose test
Method: as §1

[14] = test system: OVCAR-5; conditions: Homo sapiens; OVCAR-5, Ovarian cancer, five-dose test
Method: as §1

[15] = test system: ACHN; conditions: Homo sapiens, Renal cancer, five-dose test
Method: as §1

[16] = test system: RXF 393; conditions: Homo sapiens; RXF 393, Renal cancer, five-dose test
Method: as §1

[17] = test system: MDA-MB-435; conditions: Homo sapiens; MDA-MB-435, Melanoma, five-dose test
Method: as §1

[18] = test system: HCT-15; conditions: Homo sapiens; HCT-15, Colon cancer, five-dose test
Method: as §1

[19] = test system: HT29; conditions: Homo sapiens, HT-29; HT29, Colon cancer, five-dose test
Method: as §1

[20] = test system: NCI-H460; conditions: Homo sapiens; NCI-H460, NSCL cancer, five-dose test
Method: as §1

[21] = test system: SNB-19; conditions: Homo sapiens; SNB-19, CNS cancer, five-dose test
Method: as §1

[22] = test system: SK-MEL-28; conditions: Homo sapiens; SK-MEL-28, Melanoma, five-dose test
Method: as §1

[23] = test system: MCF7; conditions: Homo sapiens; MCF7, Breast cancer, five-dose test
Method: as §1

[24] = test system: SF-295; conditions: Homo sapiens; SF-295, CNS cancer, five-dose test
Method: as §1

[25] = test system: UACC-257; conditions: Homo sapiens; UACC-257, Melanoma, five-dose test
Method: as §1

[26] = test system: K-562; conditions: Homo sapiens, K562; K-562, Leukemia, five-dose test
Method: as §1

[27] = test system: MALME-3M; conditions: Homo sapiens, Melanoma, five-dose test
Method: as §1

[28] = test system: EKVX; conditions: Homo sapiens, NSCL cancer, five-dose test
Method: as §1

[29] = test system: HCT-116; conditions: Homo sapiens; HCT-116, Colon cancer, five-dose test
Method: as §1

[30] = test system: A498; conditions: Homo sapiens; A498, Renal cancer, five-dose test
Method: as §1

[31] = test system: NCI-H322M; conditions: Homo sapiens, NSCL cancer, five-dose test
Method: as §1

[32] = test system: SNB-75; conditions: Homo sapiens; SNB-75, CNS cancer, five-dose test
Method: as §1

[33] = test system: A549/ATCC; conditions: Homo sapiens, NSCL cancer, five-dose test
Method: as §1

[34] = test system: DU-145; conditions: Homo sapiens; DU-145, Prostate cancer, five-dose test
Method: as §1

[35] = test system: SK-MEL-5; conditions: Homo sapiens; SK-MEL-5, Melanoma, five-dose test
Method: as §1

[36] = test system: OVCAR-3; conditions: Homo sapiens; OVCAR-3, Ovarian cancer, five-dose test
Method: as §1

[37] = test system: NCI-H23; conditions: Homo sapiens; NCI-H23, NSCL cancer, five-dose test
Method: as §1

[38] = test system: SN12C; conditions: Homo sapiens, Renal cancer, five-dose test
Method: as §1

[39] = test system: TK-10; conditions: Homo sapiens; TK-10, Renal cancer, five-dose test
Method: as §1

[40] = test system: UACC-62; conditions: Homo sapiens; UACC-62, Melanoma, five-dose test
Method: as §1

[41] = test system: SK-OV-3; conditions: Homo sapiens; SK-OV-3, Ovarian cancer, five-dose test
Method: as §1

[42] = test system: SF-539; conditions: Homo sapiens; SF-539, CNS cancer, five-dose test
Method: as §1

## CN1CCN(Cc2ccc(C(=O)Nc3cccc(Nc4ccc5c(O)cccc5n4)c3)cc2C(F)(F)F)CC1 [Compound 17a, N-(3-((5-hydroxyquinolin-2-yl)amino)phenyl)-4-((4-methylpiperazin-1-yl)methyl)-3-(trifluoromethyl)benzamide]
[1]
  GI50: 1650 nM
[2]
  GI50: 7390 nM
[3]
  GI50: 1920 nM
[4]
  GI50: 1990 nM
[5]
  GI50: 4700 nM
[6]
  GI50: 3810 nM
[7]
  GI50: 1930 nM
[8]
  GI50: 10700 nM
[9]
  GI50: 3560 nM
[10]
  GI50: 2380 nM
[11]
  GI50: 1890 nM
[12]
  GI50: 2920 nM
[13]
  GI50: 15600 nM
[14]
  GI50: 3240 nM
[15]
  GI50: 2070 nM
[16]
  GI50: 1660 nM
[17]
  GI50: 1780 nM
[18]
  GI50: 1820 nM
[19]
  GI50: 2060 nM
[20]
  GI50: 2190 nM
[21]
  GI50: 2390 nM
[22]
  GI50: 1770 nM
[23]
  GI50: 1740 nM
[24]
  GI50: 1650 nM
[25]
  GI50: 1920 nM
[26]
  GI50: 2420 nM
[27]
  GI50: 1670 nM
[28]
  GI50: 3750 nM
[29]
  GI50: 2700 nM
[30]
  GI50: 17500 nM
[31]
  GI50: 3230 nM
[32]
  GI50: 1850 nM
[33]
  GI50: 4500 nM
[34]
  GI50: 4680 nM
[35]
  GI50: 1680 nM
[36]
  GI50: 3100 nM
[37]
  GI50: 2260 nM
[38]
  GI50: 2340 nM
[39]
  GI50: 3360 nM
[40]
  GI50: 1730 nM
[41]
  GI50: 14400 nM
[42]
  GI50: 1670 nM

## CN1CCCN(Cc2ccc(C(=O)Nc3cccc(Nc4ccc5c(O)cccc5n4)c3)cc2C(F)(F)F)CC1 [Compound 17b, N-(3-((5-hydroxyquinolin-2-yl)amino)phenyl)-4-((4-methyl-1,4-diazepan-1-yl)methyl)-3-(trifluoromethyl)benzamide]
[1]
  GI50: 1630 nM
[2]
  GI50: 3830 nM
[3]
  GI50: 1810 nM
[4]
  GI50: 1830 nM
[5]
  GI50: 2560 nM
[6]
  GI50: 2140 nM
[7]
  GI50: 1840 nM
[8]
  GI50: 3460 nM
[9]
  GI50: 2510 nM
[10]
  GI50: 2070 nM
[11]
  GI50: 1800 nM
[12]
  GI50: 2890 nM
[13]
  GI50: 1800 nM
[14]
  GI50: 11400 nM
[15]
  GI50: 1920 nM
[16]
  GI50: 1850 nM
[17]
  GI50: 1780 nM
[18]
  GI50: 1930 nM
[19]
  GI50: 1920 nM
[20]
  GI50: 1810 nM
[21]
  GI50: 2030 nM
[22]
  GI50: 1820 nM
[23]
  GI50: 1680 nM
[24]
  GI50: 1670 nM
[25]
  GI50: 1600 nM
[26]
  GI50: 2180 nM
[27]
  GI50: 1700 nM
[28]
  GI50: 1820 nM
[29]
  GI50: 1620 nM
[30]
  GI50: 15300 nM
[31]
  GI50: 3270 nM
[32]
  GI50: 1320 nM
[33]
  GI50: 3630 nM
[34]
  GI50: 3270 nM
[35]
  GI50: 1720 nM
[36]
  GI50: 1970 nM
[37]
  GI50: 1780 nM
[38]
  GI50: 1830 nM
[39]
  GI50: 2800 nM
[40]
  GI50: 1690 nM
[41]
  GI50: 11100 nM
[42]
  GI50: 1700 nM

## CN1CCN(Cc2ccc(C(=O)Nc3cccc(Nc4ccc5cc(O)ccc5n4)c3)cc2C(F)(F)F)CC1 [Compound 18a, N-(3-((6-hydroxyquinolin-2-yl)amino)phenyl)-4-((4-methylpiperazin-1-yl)methyl)-3-(trifluoromethyl)benzamide]
[1]
  GI50: 1730 nM
[2]
  GI50: 11200 nM
[3]
  GI50: 13500 nM
[4]
  GI50: 10200 nM
[5]
  GI50: 16600 nM
[6]
  GI50: 10400 nM
[7]
  GI50: 4820 nM
[8]
  GI50: 14600 nM
[9]
  GI50: 13200 nM
[10]
  GI50: 2170 nM
[11]
  GI50: 2390 nM
[12]
  GI50: 2650 nM
[13]
  GI50: 12200 nM
[14]
  GI50: 14200 nM
[15]
  GI50: 7590 nM
[16]
  GI50: 3550 nM
[17]
  GI50: 8530 nM
[18]
  GI50: 2090 nM
[19]
  GI50: 3370 nM
[20]
  GI50: 3840 nM
[21]
  GI50: 13800 nM
[22]
  GI50: 1790 nM
[23]
  GI50: 2460 nM
[24]
  GI50: 2330 nM
[25]
  GI50: 7350 nM
[26]
  GI50: 1880 nM
[27]
  GI50: 1590 nM
[28]
  GI50: 14200 nM
[29]
  GI50: 3930 nM
[30]
  GI50: 22500 nM
[31]
  GI50: 11000 nM
[32]
  GI50: 656 nM
[33]
  GI50: 8700 nM
[34]
  GI50: 10500 nM
[35]
  GI50: 2350 nM
[36]
  GI50: 11200 nM
[37]
  GI50: 13900 nM
[38]
  GI50: 14100 nM
[39]
  GI50: 21400 nM
[40]
  GI50: 15400 nM
[41]
  GI50: 16500 nM
[42]
  GI50: 1980 nM

— PMC9963398, “Discovery of New Quinolone-Based Diarylamides as Potent B-RAF^V600E/C-RAF Kinase Inhibitors Endowed with Promising In Vitro Anticancer Activity” (International Journal of Molecular Sciences, 2023)
